Values quoted from earlier work, collected in patent US20130177630A1 (priority 2012, published 2013).

System: fibrolamellar hepatocellular carcinoma
Conditions: patient with fibrolamellar hepatocellular carcinoma

## O=C(O)C(=O)CBr [3-bromopyruvate]
  side effects: severe side effects
  treatment outcome (survival): life-extension characteristics
